Where two headings read alike, the source gives them in different places.
Columns and labels:
[1] = tested on: peripheral blood mononuclear cells (PBMC); experiment: Cellular antiproliferative activity (PrestoBlue); assay type: cell-based, human; conditions: 48 h, read-out: Peripheral Blood Mononuclear Cell (PBMC) IC50
Description: (2012) was performed. PBMC isolation and testing was approved by the Ethics Committee of the Department of Natural and Agricultural Sciences, University of Pretoria, Pretoria (Doc nr: EC120411-046; 17.05.2012). Briefly, peripheral blood mononuclear cells were isolated from blood that was freshly donated on the same day at the Student Clinic at the University of Pretoria. Mononuclear cells were isolated by centrifugation over Ficoll-Hypaque, a density gradient solution, with a density gradient of 1.07 g/mL. A layer of fresh heparinized venous blood was layered on the Ficoll-Hypaque at a ratio of 1:1 with supplemented RPMI 1640 media and then subjected to centrifugation at 3000 rpm for 30 min. Through centrifugation, the whole blood sample was separated into its different layers. […] The cells were counted and seeded in 96-well plates with a cell density of 10,000 cells/mL. The following formula was used to adjust the cell concentrations (Equation 1): (1) Concentration of the cells=Cells counted/number of blocks counted×10000.
The HepG2 cell line was seeded with a concentration of 1 × 10^5 cells/well. […] The absorbance was read at 490 nm with a reference wavelength of 690 nm using a BIO-TEK Power-Wave XS multiwell plate reader. The assay was performed in triplicate, and the mean IC50 values were calculated.

[2] = In vitro metabolism with human liver microsomes or cytosolic proteins and cofactors (UHPLC-QTOF-MS); assay type: in vitro ADME; conditions: for Level of verbascoside during incubation: 10 µM
Description: From the incubation mixture, 450 µL acetonitrile was added to 150 µL of the samples to stop the reaction at time points of 0, 10, 20, 40, and 60 min. The CYP incubation mixture contained 20% NADPH regenerating system, whereas the glucuronidation incubation mixture contained 0.5 mM UDP-glucuronic acid with 5 mM MgCl2. The sulfonation incubation mixture contained 10 µM PAPS, […], and 500 µg cytosolic protein instead of microsomes, and the methylation incubation mixture contained 0.5 mM S-adenosylmethionine, 5 mM MgCl2, and 500 µg cytosolic protein instead of microsomes. […] The hydrolysis reaction was studied with an incubation mixture that contained 400 µg microsomal protein, or 500 µg cytosolic proteins, and 5 mM MgCl2. A sample with the absence of any enzyme was considered as the blank sample. After stopping the reactions, the samples were centrifuged for 20 min at 10,000× g and stored at −80 °C for analysis by the UHPLC-QTOF-MS system (Agilent Technologies, Waldbronn, Karlsruhe, Germany), which consisted of a 1290 LC system, a Jetstream ESI source, and a 6540 UHD accurate mass quadrupole time-of-flight (QTOF) mass spectrometry. The sample tray was kept at 4 °C during these analyses. […] Two microliters of sample were injected onto a column (Zorbax Eclipse XDB-C8, 2.1 × 100mm, 1.8 µm, Agilent Technologies, Palo Alto, CA, USA) that was kept at 50 °C. Mobile phases, delivered at 0.4 mL/min, consisted of water (eluent A) and methanol (eluent B), both containing 0.1% (v/v) of formic acid. The gradient employed was as follows: 2%→100% B (0–10 min); 100% B (10–14.5 min); 100%→2% B (14.5–14.51 min); and 2% B (14.51–16.50 min).
A Jetstream ESI source, operated in negative ionization mode, used the following conditions: drying gas temperature 325 °C and a flow of 10 L/min, sheath gas temperature 350 °C and a flow of 11 L/min, nebulizer pressure 45 psi, capillary voltage 3500 V, nozzle voltage 1000 V, fragmentary voltage 100 V, and skimmer 45 V. Nitrogen was used as the instrument gas. For data acquisition, a 2 GHz extended dynamic range mode was used from m/z 20 to m/z 1600. Data were collected in the centroid mode at an acquisition rate of 1.67 spectra/s with an abundance threshold of 150. The TOF was calibrated on a daily basis and subsequently operated at a high accuracy (<2 ppm). Continuous mass axis calibration was performed by monitoring two reference ions from an infusion solution throughout the runs. The reference ions were m/z 112.985587 and m/z 966.000725. Identification of the metabolites found in the treatments was based on accurate mass and isotope information (i.e., ratios, abundances, and spacing). The software for the identification of metabolites used was MassHunter Metabolite ID B.04.00 (Agilent Technologies, Santa Clara, CA, USA).

[3] = design: method as in Chen et al. (2012) [15]; conditions: DPPH in methanol; ref Chen et al. (2012) [15]; cited from earlier work
[4] = design: method as in Koo et al. (2006) [16]; conditions: ref Koo et al. (2006) [16]; read-out: DPPH radical scavenging EC50; cited from earlier work
PBMCs = tested on: PBMCs; design: method as in Sipahi et al. (2016) [21]; conditions: aqueous extract of verbascoside; ref Sipahi et al. (2016) [21]; read-out: PBMC cellular toxicity IC50; cited from earlier work

C[C@@H]1O[C@@H](O[C@@H]2[C@@H](O)[C@H](OCCc3ccc(O)c(O)c3)O[C@H](CO)[C@H]2OC(=O)/C=C/c2ccc(O)c(O)c2)[C@H](O)[C@H](O)[C@H]1O [Verbascoside]
IC50 [1]: 170 ± 3.73 µM | IC50 ([1]; Homo sapiens, PBMC): > 100 µM | Level of verbascoside during incubation ([2]; human liver cytosolic protein, PAPS, up to 60 min): decreased | Level of verbascoside during incubation ([2]; human liver cytosolic protein, S-adenosylmethionine, up to 60 min): decreased | Level of verbascoside during incubation ([2]; human liver microsomes, NADPH oxidation incubation): no decrease | Level of verbascoside during incubation ([2]; human liver microsomes, UDP-glucuronic acid, up to 60 min): decreased | Level of verbascoside during incubation ([2]; hydrolysis incubation, microsomal or cytosolic protein without cofactor): no decrease | Metabolites formed ([2]; PAPS incubation, levels increased up to 20 min): three different sulphate conjugates | Metabolites formed ([2]; S-adenosylmethionine incubation, levels increased up to 60 min): five different methylated conjugates | Metabolites formed ([2]; UDP-glucuronic acid incubation with human liver microsomes): No glucuronide conjugate | IC50 [3]: 11.4 µM | EC50 [4]: 1.28 µM | IC50 (PBMCs): 384 µM

Reference: PMC6600574 (Molecules, 2019)
